Data from patent publication US8952024B2, “Herbicidal pyrimidone derivatives” (E I du Pont de Nemours and Company, priority 2009, dated 2015).

Key:
Test in all cases: Test D pre-/postemergence plant response
Format in all cases: in vivo
[1] = tested on: barnyardgrass (Echinochloa crus-galli)
Summary of the method: (§1)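 Each species was planted in mixed loam and sand, treated either before emergence or at the 1- to 4-leaf stage, then kept under glass for 14 to 21 days. Plant response was scored by eye from 0 to 100 relative to controls; a dash marks no result.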

[2] = tested on: bluegrass (annual bluegrass, Poa annua)
Summary of the method: as §1

[3] = tested on: dallisgrass (Paspalum dilatatum)
Summary of the method: as §1

[4] = tested on: dayflower (Virginia (VA) dayflower, Commelina virginica)
Summary of the method: as §1

[5] = tested on: goosegrass (Eleusine indica)
Summary of the method: as §1

[6] = tested on: green foxtail (Setaria viridis)
Summary of the method: as §1

[7] = tested on: itchgrass (Rottboellia cochinchinensis)
Summary of the method: as §1

[8] = tested on: johnsongrass (Sorghum halepense)
Summary of the method: as §1

kochia (Kochia scoparia) = tested on: kochia (Kochia scoparia)
Summary of the method: as §1

[9] = tested on: mallow (common mallow, Malva sylvestris)
Summary of the method: as §1

[10] = tested on: prickly sida (Sida spinosa)
Summary of the method: as §1

[11] = tested on: ragweed (common ragweed, Ambrosia elatior)
Summary of the method: as §1

[12] = tested on: sandbur (southern sandbur, Cenchrus echinatus)
Summary of the method: as §1

[13] = tested on: spanishneedles (Bidens bipinnata)
Summary of the method: as §1

[14] = Postemergence, 16 g ai/ha, scale 0 to 100
[15] = Postemergence, 31 g ai/ha, scale 0 to 100 (0 no effect, 100 complete control)
[16] = Postemergence, 125 g ai/ha, scale 0 to 100 (0 no effect, 100 complete control)
[17] = Postemergence, 62 g ai/ha, scale 0 to 100 (0 no effect, 100 complete control)
[18] = Preemergence, 16 g ai/ha, scale 0 to 100, 0 no effect, 100 complete control
[19] = Preemergence, 31 g ai/ha, scale 0 to 100 (0 no effect, 100 complete control)
[20] = Preemergence, 62 g ai/ha, scale 0 to 100
[21] = Preemergence, 125 g ai/ha, scale 0 to 100
[22] = Postemergence, 31 g ai/ha, scale 0 to 100
[23] = Preemergence, rate not given, scale 0 to 100, 0 no effect, 100 complete control
[24] = Postemergence, 250 g ai/ha, scale 0 to 100 (0 no effect, 100 complete control)

## O=C1CCCC(O)=C1C(=O)c1cnc(-c2ccccc2)n(C2CCCCC2)c1=O [Compound 128, 3-cyclohexyl-5-[(2-hydroxy-6-oxo-1-cyclohexen-1-yl)carbonyl]-2-phenyl-4(3H)-pyrimidinone]
[1]; [14]
  Plant response rating, Barnyardgrass: 35
[1]; [15]
  Plant response rating, Barnyardgrass: 70
[1]; [16]
  Plant response rating, Barnyardgrass: 90
[1]; [17]
  Plant response rating, Barnyardgrass: 70
[1]; [18]
  Plant response rating, Barnyardgrass: 0
[1]; [19]
  Plant response rating, Barnyardgrass: 0
[1]; [20]
  Plant response rating, Barnyardgrass: 5
[1]; [21]
  Plant response rating, Barnyardgrass: 15
[2]; [14]
  Plant response rating, Bluegrass: 0
[2]; [15]
  Plant response rating, Bluegrass: 0
[2]; [16]
  Plant response rating, Bluegrass: 0
[2]; [17]
  Plant response rating, Bluegrass: 0
[2]; [18]
  Plant response rating, Bluegrass: 0
[2]; [19]
  Plant response rating, Bluegrass: 0
[2]; [20]
  Plant response rating, Bluegrass: 25
[2]; [21]
  Plant response rating, Bluegrass: 25
[3]; [14]
  Plant response rating, Dallisgrass: 10
[3]; [22]
  Plant response rating, Dallisgrass: 20
[3]; [16]
  Plant response rating, Dallisgrass: 60
[3]; [17]
  Plant response rating, Dallisgrass: 30
[3]; [18]
  Plant response rating, Dallisgrass: 0
[3]; [19]
  Plant response rating, Dallisgrass: 20
[3]; [20]
  Plant response rating, Dallisgrass: 65
[3]; [21]
  Plant response rating, Dallisgrass: 98
[4]; [14]
  Plant response rating, Dayflower, VA: 50
[4]; [22]
  Plant response rating, Dayflower, VA: 50
[4]; [16]
  Plant response rating, Dayflower, VA: 70
[4]; [17]
  Plant response rating, Dayflower, VA: 60
[4]; [19]
  Plant response rating, Dayflower, VA: 0
[4]; [20]
  Plant response rating, Dayflower, VA: 10
[4]; [21]
  Plant response rating, Dayflower, VA: 25
[5]; [14]
  Plant response rating, Goosegrass: 35
[5]; [22]
  Plant response rating, Goosegrass: 40
[5]; [16]
  Plant response rating, Goosegrass: 70
[5]; [17]
  Plant response rating, Goosegrass: 65
[5]; [18]
  Plant response rating, Goosegrass: 0
[5]; [19]
  Plant response rating, Goosegrass: 5
[5]; [20]
  Plant response rating, Goosegrass: 65
[5]; [21]
  Plant response rating, Goosegrass: 90
[6]; [14]
  Plant response rating, Foxtail, Green: 25
[6]; [22]
  Plant response rating, Foxtail, Green: 40
[6]; [16]
  Plant response rating, Foxtail, Green: 70
[6]; [17]
  Plant response rating, Foxtail, Green: 65
[6]; [18]
  Plant response rating, Foxtail, Green: 0
[6]; [19]
  Plant response rating, Foxtail, Green: 0
[6]; [20]
  Plant response rating, Foxtail, Green: 0
[6]; [21]
  Plant response rating, Foxtail, Green: 0
[7]; [14]
  Plant response rating, Itchgrass: 0
[7]; [22]
  Plant response rating, Itchgrass: 40
[7]; [16]
  Plant response rating, Itchgrass: 65
[7]; [17]
  Plant response rating, Itchgrass: 40
[7]; [18]
  Plant response rating, Itchgrass: 0
[7]; [19]
  Plant response rating, Itchgrass: 0
[7]; [20]
  Plant response rating, Itchgrass: 0
[7]; [21]
  Plant response rating, Itchgrass: 20
[8]; [14]
  Plant response rating, Johnsongrass: 35
[8]; [22]
  Plant response rating, Johnsongrass: 40
[8]; [16]
  Plant response rating, Johnsongrass: 65
[8]; [17]
  Plant response rating, Johnsongrass: 50
[8]; [18]
  Plant response rating, Johnsongrass: 0
[8]; [19]
  Plant response rating, Johnsongrass: 0
[8]; [20]
  Plant response rating, Johnsongrass: 15
[8]; [21]
  Plant response rating, Johnsongrass: 65
Kochia (Kochia scoparia); [14]
  Plant response rating, Kochia: 20
Kochia (Kochia scoparia); [22]
  Plant response rating, Kochia: 30
Kochia (Kochia scoparia); [16]
  Plant response rating, Kochia: 40
Kochia (Kochia scoparia); [17]
  Plant response rating, Kochia: 30
Kochia (Kochia scoparia); [18]
  Plant response rating, Kochia: 0
Kochia (Kochia scoparia); [19]
  Plant response rating, Kochia: 0
Kochia (Kochia scoparia); [20]
  Plant response rating, Kochia: 50
Kochia (Kochia scoparia); [21]
  Plant response rating, Kochia: 50
[9]; [14]
  Plant response rating, Mallow: 5
[9]; [22]
  Plant response rating, Mallow: 5
[9]; [16]
  Plant response rating, Mallow: 40
[9]; [17]
  Plant response rating, Mallow: 40
[9]; [19]
  Plant response rating, Mallow: 70
[9]; [20]
  Plant response rating, Mallow: 70
[9]; [21]
  Plant response rating, Mallow: 100
[10]; [14]
  Plant response rating, Prickly Sida: 50
[10]; [22]
  Plant response rating, Prickly Sida: 60
[10]; [16]
  Plant response rating, Prickly Sida: 80
[10]; [17]
  Plant response rating, Prickly Sida: 65
[10]; [18]
  Plant response rating, Prickly Sida: 0
[10]; [19]
  Plant response rating, Prickly Sida: 0
[10]; [20]
  Plant response rating, Prickly Sida: 25
[10]; [21]
  Plant response rating, Prickly Sida: 30
[11]; [22]
  Plant response rating, Ragweed: 75
[11]; [16]
  Plant response rating, Ragweed: 90
[11]; [17]
  Plant response rating, Ragweed: 90
[11]; [18]
  Plant response rating, Ragweed: 0
[11]; [19]
  Plant response rating, Ragweed: 75
[11]; [21]
  Plant response rating, Ragweed: 100
[12]; [14]
  Plant response rating, Sandbur: 5
[12]; [22]
  Plant response rating, Sandbur: 5
[12]; [16]
  Plant response rating, Sandbur: 35
[12]; [17]
  Plant response rating, Sandbur: 5
[12]; [18]
  Plant response rating, Sandbur: 0
[12]; [19]
  Plant response rating, Sandbur: 0
[12]; [21]
  Plant response rating, Sandbur: 20
[12]; [23]
  Plant response rating, Sandbur: 20
[13]; [14]
  Plant response rating, Spanishneedles: 35
[13]; [22]
  Plant response rating, Spanishneedles: 50
[13]; [16]
  Plant response rating, Spanishneedles: 65
[13]; [17]
  Plant response rating, Spanishneedles: 50
[13]; [18]
  Plant response rating, Spanishneedles: 0
[13]; [19]
  Plant response rating, Spanishneedles: 0
[13]; [21]
  Plant response rating, Spanishneedles: 100
[13]; [23]
  Plant response rating, Spanishneedles: 90

## CCCn1c(-c2ccccc2)ncc(C(=O)C2=C(O)C3CCC(C3)C2=O)c1=O (stereo not shown) [Compound 226]
[1]; [15]
  Plant response rating, Barnyardgrass: 85
[1]; [16]
  Plant response rating, Barnyardgrass: 95
[1]; [24]
  Plant response rating, Barnyardgrass: 95
[1]; [17]
  Plant response rating, Barnyardgrass: 85
[2]; [15]
  Plant response rating, Bluegrass: 0
[2]; [16]
  Plant response rating, Bluegrass: 10
[2]; [24]
  Plant response rating, Bluegrass: 30
[2]; [17]
  Plant response rating, Bluegrass: 10
[3]; [16]
  Plant response rating, Dallisgrass: 30
[3]; [24]
  Plant response rating, Dallisgrass: 35
[3]; [17]
  Plant response rating, Dallisgrass: 20
[4]; [24]
  Plant response rating, Dayflower, VA: 65
[4]; [17]
  Plant response rating, Dayflower, VA: 50
[5]; [16]
  Plant response rating, Goosegrass: 70
[5]; [24]
  Plant response rating, Goosegrass: 75
[5]; [17]
  Plant response rating, Goosegrass: 70
[6]; [16]
  Plant response rating, Foxtail, Green: 80
[6]; [24]
  Plant response rating, Foxtail, Green: 98
[6]; [17]
  Plant response rating, Foxtail, Green: 70
[7]; [16]
  Plant response rating, Itchgrass: 70
[7]; [24]
  Plant response rating, Itchgrass: 90
[7]; [17]
  Plant response rating, Itchgrass: 70
[8]; [16]
  Plant response rating, Johnsongrass: 80
[8]; [24]
  Plant response rating, Johnsongrass: 90
[8]; [17]
  Plant response rating, Johnsongrass: 80
Kochia (Kochia scoparia); [16]
  Plant response rating, Kochia: 70
Kochia (Kochia scoparia); [24]
  Plant response rating, Kochia: 70
Kochia (Kochia scoparia); [17]
  Plant response rating, Kochia: 60
[9]; [16]
  Plant response rating, Mallow: 50
[9]; [24]
  Plant response rating, Mallow: 65
[9]; [17]
  Plant response rating, Mallow: 50
[10]; [16]
  Plant response rating, Prickly Sida: 70
[10]; [24]
  Plant response rating, Prickly Sida: 75
[10]; [17]
  Plant response rating, Prickly Sida: 65
[11]; [16]
  Plant response rating, Ragweed: 90
[11]; [24]
  Plant response rating, Ragweed: 98
[11]; [17]
  Plant response rating, Ragweed: 90
[12]; [16]
  Plant response rating, Sandbur: 75
[12]; [24]
  Plant response rating, Sandbur: 75
[12]; [17]
  Plant response rating, Sandbur: 75
[13]; [16]
  Plant response rating, Spanishneedles: 75
[13]; [24]
  Plant response rating, Spanishneedles: 80
[13]; [17]
  Plant response rating, Spanishneedles: 75
